Assay results from ChEMBL document CHEMBL1142777, “Identification of potent type I MetAP inhibitors by simple bioisosteric replacement. Part 1: Synthesis and preliminary SAR studies of thiazole-4-carboxylic acid thiazol-2-ylamide derivatives” (Bioorg Med Chem Lett, 2005).

Columns and labels:
[1] = target: T1, Methionine aminopeptidase 1 (Saccharomyces cerevisiae S288c, UniProt Q01662); assay: Inhibitory concentration required against Saccharomyces cerevisiae MetAP1 (330 nM)
T1 sequence (Q01662 whole entry): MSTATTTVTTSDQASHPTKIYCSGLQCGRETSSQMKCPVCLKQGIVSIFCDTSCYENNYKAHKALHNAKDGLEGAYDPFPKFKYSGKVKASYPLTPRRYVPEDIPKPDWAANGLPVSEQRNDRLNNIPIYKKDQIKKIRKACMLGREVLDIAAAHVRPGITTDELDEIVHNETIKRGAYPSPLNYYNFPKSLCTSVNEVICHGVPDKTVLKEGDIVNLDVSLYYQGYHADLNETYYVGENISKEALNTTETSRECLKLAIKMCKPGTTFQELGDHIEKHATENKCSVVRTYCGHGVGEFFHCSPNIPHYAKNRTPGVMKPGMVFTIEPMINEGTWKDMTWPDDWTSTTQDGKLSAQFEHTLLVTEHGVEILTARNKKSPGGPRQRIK

[2] = target: T2, Methionine aminopeptidase (Escherichia coli K-12, UniProt P0AE18); assay: Inhibitory concentration required against Escherichia coli MetAP1 (150 nM)
T2 sequence (P0AE18 whole entry): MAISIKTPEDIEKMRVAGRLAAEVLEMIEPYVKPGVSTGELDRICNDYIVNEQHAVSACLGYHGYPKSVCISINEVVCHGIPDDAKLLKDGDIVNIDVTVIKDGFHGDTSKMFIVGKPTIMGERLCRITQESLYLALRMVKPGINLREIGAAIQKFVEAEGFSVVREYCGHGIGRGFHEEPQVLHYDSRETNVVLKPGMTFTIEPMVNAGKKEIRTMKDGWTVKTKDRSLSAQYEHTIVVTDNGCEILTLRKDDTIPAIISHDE

Structure (SMILES)	IC50 [1] [nM]	IC50 [2] [nM]
O=C(Nc1nccs1)c1cscn1	2260	110
CC(C)(C)OC(=O)Nc1scnc1C(=O)Nc1nccs1	4620	60
COC(C)Cc1scnc1C(=O)Nc1nccs1 (stereo not drawn)	880	74
O=C(Nc1nccs1)c1ncsc1Cc1ccccc1	3800	170
O=C(CN1CCCC1)Nc1scnc1C(=O)Nc1nccs1	860	160
O=C(Nc1scnc1C(=O)Nc1nccs1)c1cccc(Cl)c1	1830	270
CN(C)CC(=O)Nc1scnc1C(=O)Nc1nccs1	10500	300
O=C(O)CC(=O)Nc1scnc1C(=O)Nc1nccs1	4910	88
O=C(CN1CCOCC1)Nc1scnc1C(=O)Nc1nccs1	4710	110
O=C(Nc1nccs1)c1ncsc1NC(=O)C1CC1	6380	42
O=C(CN1CCCCC1)Nc1cccnc1C(=O)Nc1nccs1	–	53
CC(C)Cc1scnc1C(=O)Nc1nccs1	990	100
CCCCCc1scnc1C(=O)Nc1nccs1	980	160
Nc1scnc1C(=O)Nc1nccs1	13200	1970
CC(=O)OCC(=O)Nc1scnc1C(=O)Nc1nccs1	2650	76
O=C(Nc1nccs1)c1ncsc1CCc1ccccc1	660	65
CCCCCCCCCCCc1scnc1C(=O)Nc1nccs1	> 100000	76500
O=C(Nc1scnc1C(=O)Nc1nccs1)c1ccc(F)cc1	480	110
Cc1scnc1C(=O)Nc1nccs1	9820	180

Structure (SMILES)	IC50 [1] [nM]	IC50 [2] [nM]
COC(Cc1scnc1C(=O)Nc1nccs1)C(C)C (stereo not drawn)	500	89
O=C(COCc1ccccc1)Nc1scnc1C(=O)Nc1nccs1	1120	29
O=C(Nc1nccs1)c1ncsc1-c1ccccc1	3410	210
CCc1scnc1C(=O)Nc1nccs1	7640	180
CC(C)=CCC(=O)Nc1cccnc1C(=O)Nc1nccs1	140	–
O=C(Nc1nccs1)c1ncsc1NC(=O)C1CCCC1	130	24
C=CC(C)C(=O)Nc1scnc1C(=O)Nc1nccs1 (stereo not drawn)	370	44
CC(C)=CCCC(C)Cc1scnc1C(=O)Nc1nccs1 (stereo not drawn)	2110	170
CCOC(=O)CC(=O)Nc1scnc1C(=O)Nc1nccs1	670	66
O=C(Nc1nccs1)c1ncsc1NC(=O)C1CCC1	250	40
O=C(Nc1scnc1C(=O)Nc1nccs1)c1ccccc1F	990	76
CCC(=O)Nc1scnc1C(=O)Nc1nccs1	220	81
O=C(Nc1nccs1)c1ncsc1Cc1ccc(F)cc1Cl	900	82
COc1ccccc1C(=O)Nc1scnc1C(=O)Nc1nccs1	3320	190
C=CCC(=O)Nc1scnc1C(=O)Nc1nccs1	2630	54
O=C(CN1CCCCC1)Nc1scnc1C(=O)Nc1nccs1	1450	140
COCC(=O)Nc1scnc1C(=O)Nc1nccs1	1530	92
CC(C)c1scnc1C(=O)Nc1nccs1	7200	220
C=CCC(=O)Nc1cccnc1C(=O)Nc1nccs1	–	130
